Experiments:
[1] = system: MC38 murine colon adenocarcinoma; test: Therapeutic efficacy in combination with doxorubicin in MC38 model; format: in vivo, C57BL/6 mice
Procedure: Therapeutic efficacy of PNP-R848 in combination with chemotherapy was also assessed (FIG. 8). […] Despite some promising initial results, all mice treated with doxorubicin, both with or without PNP-R848, succumbed after re-challenge with a 3-fold higher dose of cancer cells.
Therapeutic efficacy in combination with doxorubicin. Mice were implanted with 1 × 10^6 MC38 cells subcutaneously into the right flank, which were allowed to grow to an average size of ~30-40 mm^3. The mice received intratumoral treatments every other day for a total of 3 times. The treatment groups included: 8% sucrose (n = 6), free doxorubicin (n = 6), and doxorubicin + PNP-R848 (n = 6). Mice received 63 µg of doxorubicin and 15 µg of R848 per dose. For the combination treatment, doxorubicin and PNP-R848 were mixed pre-administration and the animal received one intratumoral injection containing both. Tumor growth and mouse weight were monitored every other day. Progression-free survival was defined as tumor volume < 200 mm^3. All the mice that rejected the initial MC38 inoculum were re-challenged subcutaneously using 3 × 10^6 MC38 cells on day 56 after the start of the first treatment. Five naive C57BL/6 mice that received the same MC38 tumor cell challenge were used as controls to verify tumorigenicity.

[2] = system: MC38 murine colon adenocarcinoma; test: Therapeutic efficacy in a murine MC38 tumor model (15 µg and reduced 6 µg R848 dosage); format: in vivo, C57BL/6 mice; conditions: for long-term survival rate: intratumoral, every other day x3
Procedure: The antitumor efficacy of PNP-R848 was evaluated using an MC38 murine colon adenocarcinoma model in immunocompetent C57BL/6 mice (FIG. 4a). Each animal received a subcutaneous injection of 1 × 10^6 MC38 cells in the right flank, and the average tumor size was allowed to reach ~30-40 mm^3. At this point, the mice started receiving one of the following treatments: 8% sucrose as a negative control, free R848, PEG-NP loaded with R848 (PEG-NP-R848), or PNP-R848, each at a drug dosage of 15 µg per injection. Treatments were administered intratumorally every other day for a total of 3 times, after which the mice were monitored regularly to assess therapeutic efficacy (FIGS. 4b-e). […] Tumor growth was considerably delayed when treating with either free R848 or PEG-NP-R848, but there was significant disease progression in a majority of the mice by approximately 30 days after the start of treatment. […] Treatment efficacy was also evaluated when reducing the drug dosage by 2.5-fold to 6 µg of R848 per injection (FIG. 6).
In order to determine if the surviving animals had developed long-term immunity against MC38 cancer cells, the mice were re-challenged with a 3-fold higher inoculum subcutaneously into the right flank 56 days after initiation of the first treatment (FIGS. 4c,d). For the survivors that had been treated with either dose of PNP-R848, the second tumor challenge was rejected at a 100% rate. […] The remainder of the surviving animals in the other groups all rejected the re-challenge, with no tumor progression observed at least 100 days after the start of the initial treatment.
Therapeutic efficacy in a murine MC38 tumor model. Mice were implanted with 1 × 10^6 MC38 cells subcutaneously into the right flank, which were allowed to grow to an average size of ~30-40 mm^3. The mice were then intratumorally treated every other day for a total of 3 times. […] Tumor growth and mouse weight were monitored every other day. […]
Therapeutic efficacy in a murine MC38 tumor model at a reduced R848 dosage. […] Tumor growth and mouse weight were monitored every other day. […]

Structure (SMILES) | survival ([1]; 63 µg doxorubicin intratumoral x3) | outcome after re-challenge ([1]; 3-fold higher dose of cancer cells, day 56) | long-term survival rate ([2]; 6 µg R848 per injection) [%] | long-term survival rate ([2]; 15 µg R848 per injection) [%] | overall survival after the tumor re-challenge ([2]; 6-µg dosage, 3-fold higher inoculum, day 56) [%]
COc1cccc2c1C(=O)c1c(O)c3c(c(O)c1C2=O)C[C@@](O)(C(=O)CO)C[C@@H]3O[C@H]1C[C@H](N)[C@H](O)[C@H](C)O1 [doxorubicin] | prolonged survival, the improvement was modest | succumbed |  |  | 
CCOCc1nc2c(N)nc3ccccc3c2n1CC(C)(C)O [free R848, Resiquimod] |  |  | 62.5 | 28.6 | 37.5

— patent US20230310504A1, “PLATELET MEMBRANE COATED NANOPARTICLES AND USES THEREOF” (CELLO THERAPEUTICS, INC., priority 2020, published 2023)
